What all share (type): cell-based, human
The test system of experiment [1] is LMP1-specific CTL clone H7. The experiment in a line: IFNγ ELISPOT assay, CTL clone H7 with peptide-pulsed A0206-293T cells. As to conditions: for recognition by H7 in ELISPOT assay: A0206-293T cells pulsed with various concentrations of synthetic peptide, FIG. 2D. As for the experimental part:
ELISPOT assays were performed by known methods (Kuzushima K., et al., Blood, 94:3094-3100 (1999); Kondo E., et al., J. Immunol., 169:2164-2171 (2002); and Kuzushima K., et al., Blood, 98:1872-1881 (2001)). Specifically, CD8 T cells were co-cultured with various stimulators in wells of Multiscreen-HA plates (MAHA S4510; Millipore, Billerica, Mass., USA) coated with anti-human interferon-γ (IFNγ) monoclonal antibody (Pierce Biotechnology, Philadelphia, Pa., USA).
As stimulators, HLA-A*0206-positive or -negative LCLs (1×10^5 cells/well) or HLA-A*0206-expressing HEK-293T (A0206-293T) cells (5×10^4 cells/well) transfected with plasmids using Lipofectamin 2000 (Invitrogen) were seeded into each well 48 hour before T cell addition. For peptide titration assays, several concentrations of synthetic peptides (Greiner, Frickenhausen, Germany) were pulsed to A0206-293T cells for one hour at room temperature. After probing with […] (Pierce Biotechnology) and reacting with peroxidase-labeled anti-rabbit IgG antibody (Genzyme, Cambridge, Mass., USA) for spot visualization, the plates were washed and dried. IFNγ spots were enumerated using a stereoscopic microscope.

In experiment [2] the test system is EBNA1-specific CTL clone B5. Kind of experiment: IFNγ ELISPOT assay, CTL clone B5 with peptide-pulsed autologous CD40-B cells. As to conditions: for recognition of 20-mer overlapping peptide by clone B5: autologous CD40-B cells pulsed with 10 μg/mL peptide, FIG. 9. As for the experimental part:
(§1) ELISPOT assays were performed by a known method (Kuzushima K., et al., Blood, 101:1460-1468 (2003)). Specifically, CD8 T cells were co-cultured with various stimulators in wells of Multiscreen-HA plates (Millipore, Billerica, Mass.) coated with anti-human interferon-γ (IFNγ) monoclonal antibody (Pierce Biotechnology, Philadelphia, Pa.). As stimulators, (A) autologous EBNA1 mRNA-transduced CD40-B cells or non-transduced CD40-B cells and (B) autologous or allogenic LCLs (1×10^5 cells/well) were seeded into each well. For peptide titration assays and the overlapping peptide assay described below, serial concentrations of synthetic peptides were added to autologous CD40-B cells for one hour at room temperature.
(§2) After reacting with anti-human IFNγ rabbit polyclonal antibody (Pierce Biotechnology), followed by addition of peroxidase-labeled anti-rabbit immunoglobulin antibody (Genzyme, Cambridge, Mass.) and substrate, the plates were washed and dried. IFNγ spots were enumerated under a stereoscopic microscope.

Experiment [3] has as its system EBNA1-specific CTL clone C6. The experiment in a line: IFNγ ELISPOT assay, CTL clone C6 with peptide-pulsed autologous CD40-B cells. As to conditions: autologous CD40-B cells pulsed with 10 μg/mL peptide; FIG. 9. As for the experimental part: as §1, §2
Experiment [4] relates to SNK-6 cells. Kind of experiment: CTL assay (51Cr release) against SNK-6. The following applies: SNK-6 pulsed with 100 nM epitope peptide; four-hour CTL assay; FIG. 5A. Here is the method: Next, cytotoxic activities of H7 on LCLs were explored. CTL assays were conducted according to the following procedures. Target cells were labeled with 50 μCi chromium (^51Cr) for one and a half hours at 37° C., washed, and mixed with CTLs at the indicated effector:target ratios in 96-well plates. After incubation for 4 or 16 hours at 37° C., the radioactivity in the supernatants was counted with a γ-counter. The percentage of specific ^51Cr release was calculated as follows: 100×{(experimental release)−(spontaneous release)}/{(maximum release)−([…])}.

Regarding “YLLEMLWRL [SEQ ID NO: 25, reference compound]”, in experiment [1] (data not shown), the “IFNγ production by H7 with the peptide” value was “did not produce IFNγ”.

With VYGGSKTSL [SEQ ID NO: 22], in experiment [2] (autologous CD40-B cells, serial dilutions of peptide, FIG. 10C), the “recognition by clone B5 in peptide titration” value is listed as “not recognized even with much higher concentrations”.

With “I I I L I I F I (IIILIIF) [SEQ ID NO: 18, LMP1 amino acid residues 64-71]”, the “recognition by H7 in ELISPOT assay” value in experiment [1] was “only the 9-mer peptide was recognized by H7”.

Turning to “#39: 20-mer overlapping EBNA1 peptide (507-526)”, in experiment [2], the “recognition of 20-mer overlapping peptide by clone B5” value was “recognized”.

Regarding “#38: 20-mer overlapping EBNA1 peptide (500-519)”, the “recognition of 20-mer overlapping peptide by clone B5” value in experiment [2] is reported as “recognized”.

As to “#24: 20-mer overlapping EBNA1 peptide (402-421)”, the “recognition of 20-mer overlapping peptide by clone C6” value in experiment [3] was “recognized”.

As for “I I I I L I I F I (IIIILIIFI) [SEQ ID NO: 1]”, the “recognition by H7 in ELISPOT assay” value in experiment [1] is “recognized by H7”. Besides, in experiment [4], the “lysis of epitope peptide-pulsed SNK-6 cells by H7” value was “efficiently lysed”.
